Assay results taken from ChEMBL document CHEMBL1142969, “Venturamides A and B: antimalarial constituents of the panamanian marine Cyanobacterium Oscillatoria sp” (J Nat Prod, 2007).

What was measured:
[1] = system: Trypanosoma cruzi; assay: Growth inhibition of Trypanosoma cruzi recombinant Tulahuen C4; format: functional, organism-based
[2] = system: Leishmania donovani; assay: Growth inhibition of Leishmania donovani MHOM/SD/00-1S after 72 hrs by amastigote assay; format: functional, organism-based
[3] = system: Plasmodium falciparum; assay: Antiplasmodial activity against chloroquine-resistant Plasmodium falciparum W2 Indochina; format: functional, organism-based
[4] = system: MCF7; assay: Growth inhibition of MCF7 cells; format: functional, cell-based; conditions: Homo sapiens
[5] = system: Vero; assay: Cytotoxicity against Vero cells after 72 hrs; format: cell-based; conditions: Chlorocebus sabaeus

Structure (SMILES) | IC50 [1] [µM] | IC50 [2] [µM] | IC50 [3] [µM] | IC50 [4] [µM] | IC50 [5] [µM]
Cc1oc2nc1C(=O)N[C@H](C)c1nc(cs1)C(=O)N[C@H](C(C)C)c1nc(cs1)C(=O)N[C@@H]2C [VENTURAMIDE A] | 14.6 | > 20 | 8.2 | 13.1 | 86
Cc1oc2nc1C(=O)N[C@H]([C@@H](C)O)c1nc(cs1)C(=O)N[C@H](C(C)C)c1nc(cs1)C(=O)N[C@@H]2C [VENTURAMIDE B] | 15.8 | > 19 | 5.2 | > 54 | 56
